Test results published in the NIST ThermoML archive (doi:10.1016/j.jct.2016.09.028).
Numbers after ± are expanded uncertainties.

Assay: xn = mol fraction of the nth substance listed
Conditions: 100 kPa, Liquid; for speed of sound: Frequency=3 MHz, Sing-around technique in a fixed-path interferometer; for mass density: Vibrating tube method

Nc1ccccc1 [aniline] + CCn1cc[n+](C)c1.F[B-](F)(F)F
Conditions	mass density, 293.15 K [kg/m3]	mass density, 303.15 K [kg/m3]	mass density, 313.15 K [kg/m3]	mass density, 323.15 K [kg/m3]	speed of sound, 293.15 K [m/s]	speed of sound, 303.15 K [m/s]	speed of sound, 313.15 K [m/s]	speed of sound, 323.15 K [m/s]
x2 = 0	1021.69 ± 1	1013.04 ± 1	1004.36 ± 1	995.66 ± 1	1656.8 ± 1.3	1618.3 ± 1.3	1580 ± 1.3	1541.9 ± 1.3
x2 = 0.1008	1068.09 ± 1.5	1059.52 ± 1.5	1050.95 ± 1.5	1042.39 ± 1.4	1673.6 ± 1.4	1634.2 ± 1.4	1596.5 ± 1.4	1561.8 ± 1.4
x2 = 0.2035	1112.92 ± 1.5	1104.8 ± 1.5	1096.69 ± 1.5	1088.57 ± 1.5	1684.8 ± 1.5	1650.6 ± 1.5	1616.2 ± 1.5	1583 ± 1.5
x2 = 0.3059	1153.03 ± 1.6	1144.58 ± 1.6	1136.13 ± 1.5	1127.68 ± 1.5	1689.8 ± 1.6	1657.2 ± 1.6	1625.5 ± 1.6	1593 ± 1.6
x2 = 0.4053	1183.5 ± 1.6	1175.21 ± 1.6	1166.91 ± 1.6	1158.62 ± 1.6	1688.9 ± 1.7	1658.9 ± 1.7	1628.7 ± 1.7	1596.8 ± 1.7
x2 = 0.5073	1208.33 ± 1.6	1200.1 ± 1.6	1191.87 ± 1.6	1183.64 ± 1.6	1684.6 ± 1.8	1654.5 ± 1.8	1624.2 ± 1.8	1593.2 ± 1.8
x2 = 0.6013	1227.06 ± 1.7	1219.01 ± 1.7	1210.96 ± 1.7	1202.91 ± 1.7	1673.9 ± 1.9	1646.2 ± 1.9	1617.6 ± 1.9	1589.3 ± 1.9
x2 = 0.7046	1244.52 ± 1.8	1236.64 ± 1.8	1228.76 ± 1.8	1220.88 ± 1.8	1660.6 ± 2	1634.7 ± 2	1608.8 ± 2	1582.3 ± 2
x2 = 0.8067	1260.47 ± 1.9	1252.74 ± 1.9	1245.01 ± 1.9	1237.28 ± 1.8	1648.4 ± 2.1	1623.8 ± 2.1	1599.4 ± 2.1	1575.4 ± 2.1
x2 = 0.9059	1272.26 ± 2	1264.62 ± 2	1256.98 ± 2	1249.34 ± 1.9	1638.8 ± 2.2	1614.2 ± 2.2	1591.8 ± 2.2	1568.9 ± 2.2
